# Assay results taken from paper PMC4687871, “Delphinidin Inhibits Tumor Growth by Acting on VEGF Signalling in Endothelial Cells” (PLoS ONE, 2015).
# Where “and” joins values, the source holds several entries; their conditions need not be identical. Equal entries are not always repeated.
# How the values were obtained:
# HUVECs = experiment: Endothelial cell proliferation (CellTiter 96 AQueous One); type: cell-based, human; details: for change of VEGF-induced proliferation: delphinidin 10 μg/ml + VEGF 10 ng/ml; for change of rate of basal proliferation: delphinidin 10 μg/ml, 1% human serum
# Experimental: HUVECs (12,000 cells per well) were seeded on 24-multiwell plates, or in the case of VEGFR2 studies HUVECs (10000 cells per well) were seeded on 96-multiwell plates, in high serum culture medium and allowed to attach for 4–5 h. The 20% serum medium was then replaced by 1% HS medium. After 24 h incubation, medium was removed and replaced with 500 μl /well or 280 μl/well (for VEGFR2 studies) of 1% HS medium containing tested substances. Cells were pre-treated with or without a MEK1/2 MAP kinase inhibitor (U-0126, 10 μM) or a PI3 kinase inhibitor (LY-294002, 10 μM), then treated with or without 10 ng/ml of VEGF, in presence or in absence of 10 μg/ml delphinidin. Cells were allowed to proliferate for 3 days and HUVEC proliferation was determined at 24 h, 48 h, and 72 h by a colorimetric assay using the ‘CellTiter 96 AQeous One Solution Cell Proliferation Assay’ from Promega.
# Cells were pre-treated with or without a VEGFR2 specific inhibitor (Ki8751, 10 nM), then treated with or without 10 ng /ml in presence or absence of 10 μg/ml delphinidin. Cells were allowed to proliferate for 2 days and HUVECs proliferation was determined at 24 h and 48 h by a colorimetric assay using the ‘CellTiter 96 AQeous One Solution Cell proliferation Assay’ from Promega.
# VEGFR2 [1] = experiment: VEGFR2 expression and phosphorylation in B16-F10 cells (Western blot); type: cell-based, mouse
# Experimental: (§1) HUVECs and B16-F10 cells were treated with delphinidin (10 μg/ml) for 3 h and then incubated without or with VEGF (10 ng/ml) for 30 min for VEGFR2 phosphorylation or 24 h for VEGFR2 expression. Then, the cells were […], washed twice with PBS and trypsinized. The cells were lysed with RIPA buffer freshly in presence of protease inhibitor. Cells were allowed to lyse for 45 min on ice and centrifuged at 15000 g for 15 min at 4°C. The supernatant was […], and protein concentrations in the supernatant were determined by protein assay.
# (§2) The proteins (30 μg) were separated on 10% sodium dodecyl sulfate-polyacrylamide gel electrophoresis (SDS-PAGE) and transferred on the nitrocellulose membranes. The membranes were incubated with anti-VEGFR2 or anti-pVEGFR2. The anti-β-actin (Sigma-Aldrich) was used to visualize protein gel loading. The membranes were then incubated with appropriate HRP-conjugated secondary antibody. The protein-antibody complexes were detected by chemiluminescence using the Western Blotting Luminol reagent kit (Santa Cruz Biotechnology®).
# [2] = Mouse weight during xenograft experiment; type: in vivo; details: 10 mg/kg i.p. once a week for 3 weeks; over 30 days; vs non-treated mice
# Experimental: (§3) Two groups of 7 male C57BL/6N mice were used at 6 weeks old for tumor induction. The experimental protocol is illustrated on in Fig 1A. Before any treatments, mouse weights were registered on day 1 (D1). On the following day (D2), all mice were subcutaneously injected on the ventral side near each hindleg with B16-F10 melanoma cells (25x10^4 cells in 100 μl of 0.9% NaCl). The seventh day after tumor cell inoculation (D9), mice were treated by i.p. injection (100 μl/10 g mice) with either drug solvent (1% ethanol) or 10 mg delphinidin/kg. Delphinidin as well as solvent injections were repeated twice at 7-day intervals (D16 and D23). Then, seven days later (D30) after pentobarbital anesthesia, mice were sacrificed by cervical dislocation and tumors were dissected and weighted.
# PDE2 = target: T1, PDE2 (Homo sapiens, UniProt O00408); experiment: Purified PDE radio-enzymatic assay, PDE2; type: biochemical; details: substrate 1 μM cAMP, preliminarily reported in ref 26
# T1 construct: PDE2 was isolated from human platelets; from tissue; host or cells: human platelets
# T1 sequence (O00408 whole entry): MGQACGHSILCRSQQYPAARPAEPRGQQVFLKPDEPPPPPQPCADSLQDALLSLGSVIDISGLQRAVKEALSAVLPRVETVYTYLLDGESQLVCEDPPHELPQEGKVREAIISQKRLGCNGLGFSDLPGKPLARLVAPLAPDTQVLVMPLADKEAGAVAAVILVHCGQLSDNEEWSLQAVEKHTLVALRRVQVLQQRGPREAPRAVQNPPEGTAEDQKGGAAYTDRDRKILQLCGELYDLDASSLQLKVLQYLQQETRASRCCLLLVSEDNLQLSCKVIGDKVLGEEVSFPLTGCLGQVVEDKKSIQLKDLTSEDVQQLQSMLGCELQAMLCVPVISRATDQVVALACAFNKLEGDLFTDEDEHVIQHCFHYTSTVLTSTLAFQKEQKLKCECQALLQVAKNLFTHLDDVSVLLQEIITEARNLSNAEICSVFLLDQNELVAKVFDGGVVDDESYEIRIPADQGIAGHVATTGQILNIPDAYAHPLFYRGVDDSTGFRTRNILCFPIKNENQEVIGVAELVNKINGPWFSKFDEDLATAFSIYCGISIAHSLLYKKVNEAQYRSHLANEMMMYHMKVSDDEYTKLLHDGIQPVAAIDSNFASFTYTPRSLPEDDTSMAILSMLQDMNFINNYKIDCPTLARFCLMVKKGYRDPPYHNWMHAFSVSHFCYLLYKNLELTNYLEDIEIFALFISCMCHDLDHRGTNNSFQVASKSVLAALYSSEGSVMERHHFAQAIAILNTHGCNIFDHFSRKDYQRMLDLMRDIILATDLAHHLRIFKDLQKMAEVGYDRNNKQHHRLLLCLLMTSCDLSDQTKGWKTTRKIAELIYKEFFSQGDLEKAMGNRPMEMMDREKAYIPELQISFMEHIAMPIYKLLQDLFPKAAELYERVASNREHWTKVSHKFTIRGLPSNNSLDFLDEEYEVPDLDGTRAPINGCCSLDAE
# Experimental: (§4) PDE1, PDE3, PDE4 and PDE5 were isolated by anion-exchange chromatography from bovine aortic smooth muscle cytosolic fraction as previously described. PDE2 was isolated from human platelets. Purified PDEs were stored as aliquots at -80°C until use. PDE activity was determined by a radio-enzymatic assay as described previously. The concentration of delphinidin that produced 50% inhibition (IC50) of substrate hydrolysis (determined at 1μM cAMP or cGMP) was calculated by non-linear regression analysis (GraphPad Prism, San Diego, CA) of concentration-response curves performed with 1–300 μM of delphinidin and included 6 different concentrations of delphinidin.
# VEGFR2 [3] = experiment: VEGFR2 expression and phosphorylation in HUVECs (Western blot); type: cell-based, human
# Experimental: as §1, §2
# p38 MAP kinase = p38 MAP kinase activation in HUVECs (Western blot); type: cell-based, human; details: delphinidin 10 μg/ml; 30 min
# Experimental: (§5) HUVECs (9,000 cells per dish of 3.5 cm diameter) were seeded on petri dishes in high serum culture medium and allowed to attach for 4–5 h. The 20% serum medium was then replaced by 1% HS medium. […] Appropriate quantities of extracted proteins were resolved in a SDS-10% polyacrylamide gel and electro transferred onto PVDF membranes, as described previously. […] Immobilized antigens were detected by chemiluminescence using HRP-conjugates as secondary antibodies (1/60,000), an ECL assay kit and autoradiography films. Autoradiography signals were captured on a GeneGenius Bio Imaging System (Syngene) using the GeneSnap software and analyzed using the GeneTools software. […] Immobilized antigens were detected as described above.
# ATF1 = ATF1 phosphorylation in HUVECs (Western blot); type: cell-based, human; details: delphinidin 10 μg/ml, 30 min
# Experimental: as §5
# [4] = test system: B16-F10 melanoma cell xenograft; experiment: Tumor growth induced by B16-F10 melanoma cell xenograft in mice; type: in vivo, mouse; details: 10 mg/kg i.p. once a week for 3 weeks; 30th day; vs vehicle-treated mice
# Experimental: as §3
# CREB = CREB phosphorylation in HUVECs (Western blot); type: cell-based, human; details: 30 min
# Experimental: as §5
# PDE5 = target: T2, PDE5 (Bos taurus, UniProt Q28156); experiment: Purified PDE radio-enzymatic assay, PDE5; type: biochemical, bovine; details: substrate 1 μM cGMP; preliminarily reported in ref 26
# T2 construct: isolated by anion-exchange chromatography from bovine aortic smooth muscle cytosolic fraction; from tissue; host or cells: bovine aortic smooth muscle, cytosolic fraction
# Experimental: as §4
# human NSCLC cells = test system: human NSCLC cells; parameters: method as in PMID 24124611; details: athymic nude mice subcutaneously implanted with human NSCLC cells; vs control mice; cited from earlier work
# B16-F10 melanoma cells = experiment: Melanoma cell proliferation (CyQUANT); type: cell-based, mouse; details: 24, 48 and 72 h
# Experimental: B16-F10 (5,000 cells per well) were seeded on 96-multiwell plates in completed medium and allowed to attach overnight. […] Proliferation was determined at 24 h, 48 h and 72 h by a fluorimetric assay using the CyQUANT Cell Proliferation Assay Kit (Molecular Probes, Eugene, OR). After growth medium removal, dye-binding solution was added into each microplate well and cells were incubated at 37°C for 45 minutes. The fluorescence levels were read on a fluorescent microplate reader (Synergy HT, Biotek, Winooski, VT) with filters for 485 nm excitation and 530 nm emission.
# PDE1 = experiment: Purified PDE radio-enzymatic assay, PDE1; type: biochemical, bovine; details: substrate 1 μM cGMP, preliminarily reported in ref 26
# Experimental: as §4
# PDE4 = experiment: Purified PDE radio-enzymatic assay, PDE4; type: biochemical, bovine; details: substrate 1 μM cAMP; preliminarily reported in ref 26
# Experimental: as §4
compound,measurement,setting,value
"COc1cc2nccc(Oc3ccc(NC(=O)Nc4ccc(F)cc4F)c(F)c3)c2cc1OC [Ki8751, reference compound]",ability of VEGF to increase endothelial cell proliferation,"HUVECs; Ki8751 10 nM + VEGF, 24 and 48 h",completely abolished
"O=c1cc(N2CCOCC2)oc2c(-c3ccccc3)cccc12 [LY-294002, 2-(4-Morpholinyl)-8-phenyl-4H-1-benzopyran-4-one, reference compound]",effect on the inhibitory effect of delphinidin on basal proliferation,HUVECs; LY-294002 10 μM + delphinidin 10 μg/ml,completely blunted
same,increase of basal proliferation,"HUVECs; LY-294002 10 μM, 72 h",not at 72 h
"N#CC(=C(N)Sc1ccccc1N)C(C#N)=C(N)Sc1ccccc1N [U-0126, 1,4-diamino-2,3-dicyano-1,4-bis(2-aminophenylthio)-butadiene, reference compound]",proliferation rate (% of control),"HUVECs; U-0126 10 μM + VEGF 10 ng/ml, 72 h, n.s. vs control",131%
same,effect on the inhibitory effect of delphinidin on basal proliferation,HUVECs; U-0126 10 μM + delphinidin 10 μg/ml,reversed to some extent closer to basal level
"Oc1cc(O)c2cc(O)c(-c3cc(O)c(O)c(O)c3)[o+]c2c1 [delphinidin, Delphinidin]",VEGF-dependent VEGFR2 phosphorylation,"VEGFR2 [1]; delphinidin 10 μg/ml 3 h, then VEGF 30 min",inhibited
same,mouse weight as a percent of the starting weight,[2],unchanged
same,change of VEGF-induced proliferation,HUVECs; 24 h,-56%
same,change of VEGF-induced proliferation,HUVECs; 48 h,-85%
same,change of VEGF-induced proliferation,HUVECs; 72 h,-130%
same,change of rate of basal proliferation,HUVECs; 24 h,-52%
same,change of rate of basal proliferation,HUVECs; 48 h,-66%
same,change of rate of basal proliferation,HUVECs; 72 h,-70%
same,IC50,PDE2; +5μM cGMP,19.8 µM and 18 µM
same,IC50,PDE2; no regulator,115 µM and 103 µM
same,ability of VEGF in increasing VEGFR2 phosphorylation,"VEGFR2 [3]; delphinidin 10 μg/ml 3 h, then VEGF 10 ng/ml 30 min",completely prevented
same,ability of VEGF in increasing VEGFR2 expression,"VEGFR2 [3]; delphinidin 10 μg/ml 3 h, then VEGF 10 ng/ml 24 h",completely prevented
same,VEGFR2 expression,VEGFR2 [3]; delphinidin 10 μg/ml alone,no effect
same,VEGFR2 phosphorylation,VEGFR2 [3]; delphinidin 10 μg/ml alone,no effect
same,basal p38 MAP kinase activation,p38 MAP kinase,did not affect
same,phosphorylation of ATF1,ATF1; after stimulation by VEGF 10 ng/ml,abolished
same,phosphorylation of ATF1,ATF1; control conditions,abolished
same,decrease of tumor weight,[4],83%
same,increase of CREB phosphorylation induced by VEGF,CREB; delphinidin 10 μg/ml + VEGF 10 ng/ml,completely prevented
same,CREB phosphorylation,CREB; delphinidin 10 μg/ml alone,no significant effect
same,IC50,PDE5,49.5 µM and 44 µM
same,tumor growth,human NSCLC cells,significant inhibition
same,B16-F10 proliferation,B16-F10 melanoma cells; delphinidin 10 μg/ml,did not inhibit
same,IC50,PDE1; +CaM/Ca,15 ± 3 µM
same,IC50 PDE1,PDE1; +CaM/Ca,5 ± 1 µg/mL
same,IC50,PDE1; no regulator,33 ± 6 µM
same,IC50 PDE1,PDE1; no regulator,11 ± 2 µg/mL
same,IC50,PDE4,109 ± 12 µM
same,IC50 PDE4,PDE4,37 ± 4 µg/mL
VEGF,VEGFR2 expression,VEGFR2 [1]; VEGF 10 ng/ml,did not modify
same,VEGFR2 phosphorylation,VEGFR2 [1]; VEGF 10 ng/ml 30 min,increased
same,VEGFR2 phosphorylation,VEGFR2 [3]; VEGF 10 ng/ml 30 min,increased
same,VEGFR2 expression,VEGFR2 [3]; VEGF 10 ng/ml 24 h,increased
same,increase of CREB phosphorylation,CREB; VEGF 10 ng/ml,+484%
same,B16-F10 melanoma cell proliferation,B16-F10 melanoma cells; VEGF 10 ng/ml,not able increase
